Here are results for 1 compound from patent publication US9279806B2, “Water-soluble AIE luminogens for monitoring and retardation of fibrillation of amyloid proteins” (THE HONG KONG UNIVERSITY OF SCIENCE AND TECHNOLOGY, priority 2005, dated 2016).

Data set [1] relates to ctDNA/RNA from torula yeast/BSA. Description: Fluorescence increments / binding isotherm with ctDNA, RNA and BSA. The settings on record: dye 5 μM. On the procedure:
FIG. 8 illustrates increments of fluorescence of TPE-C2N^+ (8), N+C2-TPE-C2N^+ (9), TPE-C4N^+ (10), N+C4-TPE-C4N^+ (11) when binding with 10 μg/ml ctDNA/10 μg/ml RNA diethylaminoethanol (DEAE) salt from torula yeast/10 μg/ml RNA from torula yeast in buffer solution pH=7. Concentration of dyes: 5 μM; excitation wavelength: 350 nm. The four cationic TPE derivatives display larger FL enhancement in the presence of DNA than that of RNA.
FIG. 9 illustrates the binding isotherm of N+C2-TPE-C2N^+ (5 μM) to ctDNA/RNA from torula yeast/BSA (plot of the fluorescence intensity at 470 nm for ctDNA/RNA, and at 467 nm for BSA) in aqueous phosphate buffer (pH=7.0).

A short description of data set [2]: Solubility. The class given is physicochemical.
Data set [3] concerns H21. Description: Job plots for the binding of TTAPE to H21. On the procedure: The sum of TTAPE and DNA concentrations was kept at 10 μM. Fluorescent intensities for the bound TTAPE at 470 nm are normalized to the maximum increase in each case. The y-axis represents the difference in PL intensity for mole fraction of ligand (χL) in DNA. Intercept mole fraction values were determined from least-squares fits to the linear data portions, giving yjni values of 0.50 (1:1 stoichiometry) for H21 in K-Tris, 0.67 […] for H21 in Na-Tris, and 0.75 […] for H21 in Tris-HCl, respectively.

Data set [4] relates to G1. Nature of the data set: PAGE assay of G1, gel poststaining. The conditions noted are these: gel poststained with 10 μM TTAPE for 5 min. On the set-up: species or system human. The protocol: The FL “turn-on” switching of TTAPE by binding to G1 strand inspires us to check whether it can be used as a DNA marker in the PAGE assay. Electrophoresis assay of G1 was performed on a Hoefer miniVE system in 1xTBE buffer under nondenaturing conditions using a 20% native poly(acrylamide) gel at 100V for 3 h at […]. An AlphaDigiDoc™ system with a DE-500 MultiImage™ II light cabinet and an ML-26 UV transilluminator (Alpha Innotech) was used for data collection and analysis. The gel was poststained with a 10 μM TTAPE solution for 5 min at room temperature, rinsed with distilled water, and photographed under UV light at 290-330 nm by the gel documentation system. EB was used to poststain the gel in parallel for comparison. Concentrations of G1 in the range of 0.5-10.0 μM were used to check the visualizability of the dye-stained DNA in the PAGE assay.
After running PAGE of G1 in a Tris-borate-ethylene-diaminetetraacetic acid (TBE) buffer, the gel is stained by a TTAPE solution for 5 min. […] Ethidium bromide (EB) is a widely used visualization agent for PAGE assay. […] The G1 bands are not visualized until the gel has been stained by EB for as long as 30 min. Band visualization by EB is usually realized by its intercalation into the hydrophobic region of DNA, which makes the staining a slow process. […]

Consider `CC[N+](CC)(CC)CCOc1ccc(C(=C(c2ccc(OCC[N+](CC)(CC)CC)cc2)c2ccc(OCC[N+](CC)(CC)CC)cc2)c2ccc(OCC[N+](CC)(CC)CC)cc2)cc1.[Br-].[Br-].[Br-].[Br-]` [TTAPE, 1,1,2,2-tetrakis[4-(2-triethylammonioethoxy)phenyl]ethene tetrabromide], for which the “Variety of FL in presence of DNA and RNA compared with TPE-C2N+ and TPE-C4N+” value in data set [1] (10 μg/ml ctDNA or RNA) is “much larger variety of FL”. In addition, in data set [1] (aqueous phosphate buffer pH 7.0), the “Relative affinity to DNA, RNA and proteins” value was “larger affinity to DNA than to RNA and proteins”. For the same compound, the Solubility in water entry in data set [2] was “completely soluble in water”. The entries for the “Job plot intercept mole fraction” value in data set [3] (H21 in K-Tris buffer pH 7.50), in data set [3] (H21 in Na-Tris buffer pH 7.50) and in data set [3] (H21 in Tris-HCl buffer pH 7.50) were 0.50, 0.67 and 0.75, respectively. This compound also had a Detectable G1 concentration (sensitivity test) in data set [4] of 0.5 µM.
